According to PubChem BioAssay (NCI):
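48-hour exposure; five concentrations; linearly interpolated endpoints. The concentration for full growth arrest is given as TGI.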

Key:
Assay in all cases: NCI tumour cell line growth inhibition, 48 h
786-0 renal = test system: 786-0 renal
A498 renal = test system: A498 renal
A549 NSCLC = test system: A549 NSCLC
ACHN renal = test system: ACHN renal
CAKI-1 renal = test system: CAKI-1 renal
CCRF-CEM leukemia = test system: CCRF-CEM leukemia
COLO 205 colon = test system: COLO 205 colon
DLD-1 colon = test system: DLD-1 colon
DMS 114 small cell lung = test system: DMS 114 small cell lung
DMS 273 small cell lung = test system: DMS 273 small cell lung
EKVX NSCLC = test system: EKVX NSCLC
HCC-2998 colon = test system: HCC-2998 colon
HCT-116 colon = test system: HCT-116 colon
HCT-15 colon = test system: HCT-15 colon
HL-60(TB) leukemia = test system: HL-60(TB) leukemia
HOP-62 NSCLC = test system: HOP-62 NSCLC
HOP-92 NSCLC = test system: HOP-92 NSCLC
HT29 colon = test system: HT29 colon
IGROV1 ovarian = test system: IGROV1 ovarian
K-562 leukemia = test system: K-562 leukemia
KM12 colon = test system: KM12 colon
KM20L2 colon = test system: KM20L2 colon
LXFL 529 NSCLC = test system: LXFL 529 NSCLC
M19-MEL melanoma = test system: M19-MEL melanoma
MOLT-4 leukemia = test system: MOLT-4 leukemia
NCI-H23 lung = test system: NCI-H23 lung
NCI-H460 lung = test system: NCI-H460 lung
OVCAR-3 ovarian = test system: OVCAR-3 ovarian
OVCAR-4 ovarian = test system: OVCAR-4 ovarian
OVCAR-8 ovarian = test system: OVCAR-8 ovarian
RPMI-8226 leukemia = test system: RPMI-8226 leukemia
RXF 393 renal = test system: RXF 393 renal
RXF-631 renal = test system: RXF-631 renal
SF-295 CNS = test system: SF-295 CNS
SF-539 CNS = test system: SF-539 CNS
SK-MEL-2 melanoma = test system: SK-MEL-2 melanoma
SK-MEL-28 melanoma = test system: SK-MEL-28 melanoma
SK-OV-3 ovarian = test system: SK-OV-3 ovarian
SN12C renal = test system: SN12C renal
SNB-19 CNS = test system: SNB-19 CNS
SNB-75 CNS = test system: SNB-75 CNS
SNB-78 CNS = test system: SNB-78 CNS
SR leukemia = test system: SR leukemia
SW-620 colon = test system: SW-620 colon
U251 CNS = test system: U251 CNS
UACC-257 melanoma = test system: UACC-257 melanoma
UACC-62 melanoma = test system: UACC-62 melanoma
UO-31 renal = test system: UO-31 renal
XF 498 CNS = test system: XF 498 CNS
LOX IMVI melanoma = test system: LOX IMVI melanoma
M14 melanoma = test system: M14 melanoma
MALME-3M melanoma = test system: MALME-3M melanoma
NCI-H226 lung = test system: NCI-H226 lung
NCI-H522 lung = test system: NCI-H522 lung
OVCAR-5 ovarian = test system: OVCAR-5 ovarian
SF-268 CNS = test system: SF-268 CNS
SK-MEL-5 melanoma = test system: SK-MEL-5 melanoma
TK-10 renal = test system: TK-10 renal

CC(C)CC(CNC(Cc1ccc(Cl)cc1)C(N)=O)NC(=O)C(Cc1cnc[nH]1)NC(=O)CNC(=O)C(NC(=O)C(C)NC(=O)C(Cc1c[nH]c2ccccc12)NC(=O)C(CCC(=O)O)NC(=O)C(N)Cc1ccccc1)C(C)C (stereo not given)
TGI (786-0 renal): > 133 µM
TGI (A498 renal): > 133 µM
TGI (A549 NSCLC): > 133 µM
TGI (ACHN renal): > 133 µM
TGI (CAKI-1 renal): > 133 µM
TGI (CCRF-CEM leukemia): > 133 µM
TGI (COLO 205 colon): > 133 µM
TGI (DLD-1 colon): > 133 µM
TGI (DMS 114 small cell lung): > 133 µM
TGI (DMS 273 small cell lung): > 133 µM
TGI (EKVX NSCLC): > 133 µM
TGI (HCC-2998 colon): > 133 µM
TGI (HCT-116 colon): > 133 µM
TGI (HCT-15 colon): > 133 µM
TGI (HL-60(TB) leukemia): > 133 µM
TGI (HOP-62 NSCLC): > 133 µM
TGI (HOP-92 NSCLC): < 0.0133 µM
TGI (HT29 colon): > 133 µM
TGI (IGROV1 ovarian): > 133 µM
TGI (K-562 leukemia): > 133 µM
TGI (KM12 colon): > 133 µM
TGI (KM20L2 colon): > 133 µM
TGI (LXFL 529 NSCLC): > 133 µM
TGI (M19-MEL melanoma): > 133 µM
TGI (MOLT-4 leukemia): > 133 µM
TGI (NCI-H23 lung): > 133 µM
TGI (NCI-H460 lung): > 133 µM
TGI (OVCAR-3 ovarian): > 133 µM
TGI (OVCAR-4 ovarian): > 133 µM
TGI (OVCAR-8 ovarian): > 133 µM
TGI (RPMI-8226 leukemia): > 133 µM
TGI (RXF 393 renal): > 133 µM
TGI (RXF-631 renal): > 133 µM
TGI (SF-295 CNS): > 133 µM
TGI (SF-539 CNS): > 133 µM
TGI (SK-MEL-2 melanoma): > 133 µM
TGI (SK-MEL-28 melanoma): > 133 µM
TGI (SK-OV-3 ovarian): > 133 µM
TGI (SN12C renal): > 133 µM
TGI (SNB-19 CNS): > 133 µM
TGI (SNB-75 CNS): > 133 µM
TGI (SNB-78 CNS): > 133 µM
TGI (SR leukemia): > 133 µM
TGI (SW-620 colon): > 133 µM
TGI (U251 CNS): > 133 µM
TGI (UACC-257 melanoma): > 133 µM
TGI (UACC-62 melanoma): > 133 µM
TGI (UO-31 renal): > 133 µM
TGI (XF 498 CNS): > 133 µM

Cc1c(C2Cc3ccccc3N2C(=O)/C=C\C(=O)O)c2ccccc2n1C (stereo not given)
TGI (786-0 renal): 49.3 µM
TGI (A498 renal): 66.3 µM
TGI (A549 NSCLC): > 100 µM
TGI (ACHN renal): > 100 µM
TGI (CAKI-1 renal): 78.7 µM
TGI (CCRF-CEM leukemia): > 100 µM
TGI (COLO 205 colon): 32.1 µM
TGI (DLD-1 colon): > 100 µM
TGI (DMS 114 small cell lung): 40 µM
TGI (DMS 273 small cell lung): > 100 µM
TGI (EKVX NSCLC): 72.9 µM
TGI (HCC-2998 colon): 39.5 µM
TGI (HCT-116 colon): 94.1 µM
TGI (HCT-15 colon): > 100 µM
TGI (HL-60(TB) leukemia): 51.6 µM
TGI (HOP-62 NSCLC): 57.1 µM
TGI (HOP-92 NSCLC): 36.3 µM
TGI (HT29 colon): > 100 µM
TGI (IGROV1 ovarian): 70.7 µM
TGI (K-562 leukemia): > 100 µM
TGI (KM12 colon): 35.6 µM
TGI (KM20L2 colon): 58.3 µM
TGI (LOX IMVI melanoma): 32.6 µM
TGI (LXFL 529 NSCLC): 34.8 µM
TGI (M14 melanoma): 76.2 µM
TGI (M19-MEL melanoma): 52.3 µM
TGI (MALME-3M melanoma): > 100 µM
TGI (MOLT-4 leukemia): 93.3 µM
TGI (NCI-H226 lung): 57.6 µM
TGI (NCI-H23 lung): 62.9 µM
TGI (NCI-H460 lung): > 100 µM
TGI (NCI-H522 lung): 46.4 µM
TGI (OVCAR-3 ovarian): 43.1 µM
TGI (OVCAR-4 ovarian): > 100 µM
TGI (OVCAR-5 ovarian): > 100 µM
TGI (OVCAR-8 ovarian): 43.6 µM
TGI (RXF 393 renal): 33.1 µM
TGI (RXF-631 renal): > 100 µM
TGI (SF-268 CNS): 35.9 µM
TGI (SF-295 CNS): 50.4 µM
TGI (SF-539 CNS): 42.6 µM
TGI (SK-MEL-2 melanoma): 32 µM
TGI (SK-MEL-5 melanoma): 41.5 µM
TGI (SK-OV-3 ovarian): 48.5 µM
TGI (SN12C renal): 45.6 µM
TGI (SNB-19 CNS): 37.2 µM
TGI (SNB-75 CNS): 74.2 µM
TGI (SNB-78 CNS): > 100 µM
TGI (SR leukemia): 85.8 µM
TGI (SW-620 colon): 41.5 µM
TGI (TK-10 renal): 44.6 µM
TGI (U251 CNS): 40.6 µM
TGI (UACC-257 melanoma): 36.3 µM
TGI (UACC-62 melanoma): 35.8 µM
TGI (UO-31 renal): > 100 µM
TGI (XF 498 CNS): 31.5 µM
